The text below walks through data of ChEMBL document CHEMBL1149176, “(2R)-2-ethylchromane-2-carboxylic acids: discovery of novel PPARalpha/gamma dual agonists as antihyperglycemic and hypolipidemic agents” (J Med Chem, 2004).

The target in assay [1] is T1, Peroxisome proliferator-activated receptor gamma (Homo sapiens, UniProt P37231).
T1 sequence (P37231 whole entry): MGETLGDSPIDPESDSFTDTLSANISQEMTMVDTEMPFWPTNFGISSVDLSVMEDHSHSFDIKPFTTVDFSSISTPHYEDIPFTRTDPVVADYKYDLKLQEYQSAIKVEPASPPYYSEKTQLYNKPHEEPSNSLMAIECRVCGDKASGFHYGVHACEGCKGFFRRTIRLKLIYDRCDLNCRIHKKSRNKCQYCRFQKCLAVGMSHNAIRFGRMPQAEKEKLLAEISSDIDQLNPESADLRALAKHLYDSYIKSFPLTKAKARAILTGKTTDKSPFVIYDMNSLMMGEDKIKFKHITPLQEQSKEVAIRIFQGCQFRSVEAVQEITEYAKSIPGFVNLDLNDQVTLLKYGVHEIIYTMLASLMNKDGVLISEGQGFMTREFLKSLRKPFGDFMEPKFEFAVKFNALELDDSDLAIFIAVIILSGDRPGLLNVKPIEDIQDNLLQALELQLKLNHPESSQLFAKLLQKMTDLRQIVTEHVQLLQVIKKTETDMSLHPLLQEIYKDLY
In words: In vitro binding affinity for human peroxisome proliferator activated receptor gamma using scintillation proximity assay (SPA).

In assay [2] the target is T2, Peroxisome proliferator-activated receptor alpha (Homo sapiens, UniProt Q07869).
T2 sequence (Q07869 whole entry): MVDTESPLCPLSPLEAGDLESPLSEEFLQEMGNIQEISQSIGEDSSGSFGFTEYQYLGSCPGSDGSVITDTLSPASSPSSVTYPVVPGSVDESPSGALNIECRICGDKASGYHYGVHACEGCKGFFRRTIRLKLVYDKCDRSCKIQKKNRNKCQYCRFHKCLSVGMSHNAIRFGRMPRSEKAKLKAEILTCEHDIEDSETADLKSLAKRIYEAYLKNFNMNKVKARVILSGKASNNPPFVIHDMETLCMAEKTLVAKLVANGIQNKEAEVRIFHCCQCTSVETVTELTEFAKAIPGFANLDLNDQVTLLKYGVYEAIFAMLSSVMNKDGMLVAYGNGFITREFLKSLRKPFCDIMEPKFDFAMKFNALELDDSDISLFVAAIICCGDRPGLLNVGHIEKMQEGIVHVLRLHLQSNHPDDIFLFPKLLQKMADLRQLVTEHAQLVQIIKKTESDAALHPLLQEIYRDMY
In words: In vitro potency of PPAR gene activation against human Peroxisome proliferator activated receptor alpha using chimeric Gal4-hPPAR transactivation assay (TA).

For assay [3], the target named is T1, Peroxisome proliferator-activated receptor gamma.
Description: In vitro potency of PPAR gene activation against human PPAR gamma receptor using chimeric Gal4-hPPAR transactivation assay (TA)
Assay [4] concerns the target T3, Peroxisome proliferator-activated receptor delta (Homo sapiens, UniProt Q03181).
T3 sequence (Q03181 whole entry): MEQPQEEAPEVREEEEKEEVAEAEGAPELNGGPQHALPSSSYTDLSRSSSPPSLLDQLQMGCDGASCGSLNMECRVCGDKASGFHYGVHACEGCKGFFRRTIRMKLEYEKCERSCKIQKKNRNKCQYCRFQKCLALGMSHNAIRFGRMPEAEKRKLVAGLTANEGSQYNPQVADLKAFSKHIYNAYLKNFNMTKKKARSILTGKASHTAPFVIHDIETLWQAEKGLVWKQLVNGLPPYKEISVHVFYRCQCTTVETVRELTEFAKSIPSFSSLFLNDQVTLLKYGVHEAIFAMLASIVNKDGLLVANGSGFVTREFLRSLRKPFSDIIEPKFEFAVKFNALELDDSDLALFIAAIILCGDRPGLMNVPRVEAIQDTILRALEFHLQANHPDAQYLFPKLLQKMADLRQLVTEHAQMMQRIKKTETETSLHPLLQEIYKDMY

Assay [5] addresses T2, Peroxisome proliferator-activated receptor alpha.
Description: In vitro binding affinity for human peroxisome proliferator activated receptor alpha using scintillation proximity assay (SPA)
For assay [6] the target is unchanged. In words: In vitro transcriptional activation by human PPAR alpha Gal4 chimera; Not active.
For assay [7], the target named is T1, Peroxisome proliferator-activated receptor gamma. The assay can be described thus: In vitro transcriptional activation by human PPAR gamma Gal4 chimera.
Assay [8] shares this target. The source holds these as a separate data set.
Description: In vitro binding affinity for human PPAR gamma receptor using scintillation proximity assay (SPA)
The subject of another assay is Canis familiaris. In words: In vivo percent change in serum cholesterol in dogs at 50 mg/kg. The format is functional, Canis lupus familiaris.
The test system of assay [9] is Cricetinae gen. sp. The assay can be described thus: In vivo percent change in serum cholesterol in hamsters at 100 mg/kg. It is filed as functional, Cricetulus griseus.
For assay [10], the system named is Cricetinae gen. sp. In words: In vivo percent change in triglyceride in hamsters at 100 mg/kg. The format is functional, Cricetulus griseus.
The test system of assay [11] is Cricetinae gen. sp. In words: In vivo serum cholesterol in hamsters at 100 mg/kg. It is filed as functional, Cricetulus griseus.

One may read the IC50 as the point on the concentration scale where inhibition reaches its midpoint. The low end stands for higher potency, the high end for lower potency. Broadly, the EC50 is the concentration that produces a half-maximal response. Higher therefore signals weaker potency. With `CCCc1cc(Oc2ccc(OC)cc2)ccc1OCCCOc1ccc2c(c1)OC(CC)(C(=O)O)CC2` (stereo not drawn), the IC50 in [1] is 630 nM; in assay [4], above 50000 nM; in [5] it was above 15000 nM. For the same molecule, the EC50 in assay [2] came to 4600 nM; in [3], 890 nM.
Turning to `CC[C@@]1(C(=O)O)CCc2ccc(OCCCOc3ccc(Oc4ccc(F)cc4)cc3Cl)cc2O1`, the IC50 in assay [4] is above 50000 nM.
For `CCCc1cc(Oc2ccccc2)ccc1OCCCOc1ccc2c(c1)CCC(C(=O)O)O2` (stereo not drawn), the IC50 was 2900 nM in [1], above 15000 nM in assay [4] and above 15000 nM in [5]. The EC50 entry is “Not Active” in assay [6] and 2800 nM in assay [3].
On to `CCCc1cc(Oc2ccccc2)ccc1OCCCOc1ccc2c(c1)OC(CC(C)C)(C(=O)O)CC2` (stereo not drawn), for which the IC50 in assay [1] was 1200 nM; in [4], 5000 nM; in [5] it was 3000 nM.
`CCCc1cc(Oc2ccccc2)ccc1OCCCCOc1ccc2c(c1)OC(C(=O)O)CC2` (stereo not drawn): the 50% inhibitory concentration (IC50) in [1] is 1800 nM; in assay [4], above 15000 nM; in assay [5], above 15000 nM. The figures for the concentration giving a half-maximal response (EC50) in assay [2] and in [3] were 6300 nM and 1600 nM, respectively.
For `CCCc1cc(Oc2ccccc2)ccc1OCCCCOc1ccc2c(c1)OC(C)(C(=O)O)CC2` (stereo not drawn), the IC50 in assay [1] was 5100 nM; in [4], above 50000 nM; in [5] it was above 15000 nM. In addition, the 50% effective concentration (EC50) in assay [2] amounted to 5200 nM; in assay [3], 3600 nM.
Take `CCCc1cc(Oc2ccccc2)ccc1OCCCOc1ccc2c(c1)OC(CC)(C(=O)O)CC2` (stereo not drawn): the results for the IC50 in assay [1], in assay [4] and in assay [5] were 440 nM, above 50000 nM and 360 nM, respectively. The half-maximal effective concentration (EC50) in [2] was found to be 30 nM; in assay [3], 1000 nM.
Taken in the same sequence, the figures for `CCCc1cc(Oc2ccc(Cl)cc2)ccc1OCCCOc1ccc2c(c1)OC(CC)(C(=O)O)CC2` (stereo not drawn) were 1400 nM, above 50000 nM, 4000 nM, 210 nM and 670 nM.
Turning to `CCCc1cc(Oc2ccc(F)cc2)ccc1OCCCOc1ccc2c(c1)OC(CC)(C(=O)O)CC2` (stereo not drawn), the IC50 in assay [1] was 1200 nM; in assay [4], above 50000 nM; in assay [5], 970 nM. For the same molecule, the concentration giving a half-maximal response (EC50) in assay [2] came out at 10 nM; in [3] it was 750 nM.
On to `CC1(C(=O)O)CCc2ccc(OCCCOc3ccc(Oc4ccccc4)cc3Cl)cc2O1` (stereo not drawn), for which the concentration for half-maximal inhibition (IC50) in assay [1] was 1400 nM; in assay [4] it was above 15000 nM; in assay [5] it was 120 nM. Also, the values for the concentration for a half-maximal effect (EC50) in assay [7] and in [2] were 360 nM and 80 nM, respectively.
Taken in the same sequence, the figures for `CCC1(C(=O)O)CCc2ccc(OCCCOc3ccc(Oc4ccccc4)cc3F)cc2O1` (stereo not drawn) were 4700 nM, above 50000 nM, 370 nM, 1000 nM and 50 nM.
Regarding `CCCc1cc(Oc2ccc(S(C)(=O)=O)cc2)ccc1OCCCOc1ccc2c(c1)OC(CC)(C(=O)O)CC2` (stereo not drawn), the concentration giving a half-maximal response (EC50) entry in assay [6] was “Not Active”; in assay [3], 2800 nM. Further, the IC50 in assay [4] was above 50000 nM; in [8] it was 370 nM; in assay [5], above 15000 nM.
As to `CCCc1cc(Oc2ccccc2)ccc1OCCCOc1ccc2c(c1)CCC(C)(C(=O)O)O2` (stereo not drawn), the IC50 was 1700 nM in assay [1], above 50000 nM in [4] and 3300 nM in [5]. In addition, the EC50 result in assay [6] is “Not Active”; in [3], 6800 nM.
For `CCCc1cc(Oc2ccccc2)ccc1OCCCCOc1ccc2c(c1)CCC(C(=O)O)O2` (stereo not drawn) the same measures were 3000 nM, above 50000 nM, 5800 nM, “Not Active” and 2500 nM.
For `CCCc1cc(Oc2ccccc2)ccc1OCCCOc1ccc2c(c1)OC(C)(C(=O)O)CC2` (stereo not drawn), the IC50 in [1] was 750 nM; in assay [4], above 50000 nM; in [5], 1900 nM. Moreover, the EC50 in assay [2] was found to be 100 nM; in [3], 1000 nM.
Taken in the same sequence, the figures for `CCCc1cc(Oc2ccccc2)ccc1OCCCOc1ccc2c(c1)OC(C(=O)O)CC2` (stereo not drawn) were 980 nM, 170 nM, 1500 nM, 3000 nM and 7300 nM.
On to `CCC1(C(=O)O)CCc2ccc(OCCCOc3ccc(Oc4ccccc4)cc3Cl)cc2O1` (stereo not drawn), for which the EC50 in assay [2] is 30 nM; in [3], 160 nM. Moreover, the half-maximal inhibitory concentration (IC50) is above 15000 nM in assay [4], 690 nM in assay [8] and 120 nM in assay [5].
As for `CCC1(C(=O)O)CCc2ccc(OCCCOc3ccc(Oc4ccccc4)cc3)cc2O1` (stereo not drawn), the IC50 in assay [1] is above 15000 nM; in assay [4], above 50000 nM; in [5], 1700 nM. Further, the EC50 in [7] turned out to be 10000 nM; in assay [2] it was 220 nM.
Regarding `CCCc1cc(Oc2ccccc2)ccc1OCCCOc1ccc2c(c1)OC(CCC)(C(=O)O)CC2` (stereo not drawn), the IC50 in assay [1] is 370 nM; in [4] it was above 50000 nM; in assay [5], 2100 nM. For the same molecule, the 50% effective concentration (EC50) is 120 nM in assay [2] and 830 nM in assay [3].
Turning to `CCCc1cc(Oc2ccccc2)ccc1OCCCCOc1ccc2c(c1)CCC(C)(C(=O)O)O2` (stereo not drawn), the values for the IC50 in [1], in assay [4] and in assay [5] were 2300 nM, above 50000 nM and 2000 nM, respectively. The EC50 entry was “Not Active” in assay [6] and 1200 nM in [3].
Turning to `CC(C)OC(=O)C(C)(C)Oc1ccc(C(=O)c2ccc(Cl)cc2)cc1` [FENOFIBRATE], the Change was -16.3% with Canis familiaris, -38% in the assay on Cricetinae gen. sp. [9] and -44% in the assay with Cricetinae gen. sp. [10]. This molecule registered an Activity in the assay on Cricetinae gen. sp. [11] of 67 mg/dL.
